Earlier results, collected in patent US8088597B2, “Blood pressure lowering peptides from glycomacropeptide” (DSM IP Assets B.V., priority 2005, dated 2012).

How the values were obtained:
[1] = system: spontaneously hypertensive rats; conditions: tripeptides derived from lactic acid bacteria fermented bovine milk; Nakamura et al. 1995
ACE = ACE (Homo sapiens, UniProt P12821); conditions: reported in the literature
ACE, sequence (P12821 30-1306, species assumed): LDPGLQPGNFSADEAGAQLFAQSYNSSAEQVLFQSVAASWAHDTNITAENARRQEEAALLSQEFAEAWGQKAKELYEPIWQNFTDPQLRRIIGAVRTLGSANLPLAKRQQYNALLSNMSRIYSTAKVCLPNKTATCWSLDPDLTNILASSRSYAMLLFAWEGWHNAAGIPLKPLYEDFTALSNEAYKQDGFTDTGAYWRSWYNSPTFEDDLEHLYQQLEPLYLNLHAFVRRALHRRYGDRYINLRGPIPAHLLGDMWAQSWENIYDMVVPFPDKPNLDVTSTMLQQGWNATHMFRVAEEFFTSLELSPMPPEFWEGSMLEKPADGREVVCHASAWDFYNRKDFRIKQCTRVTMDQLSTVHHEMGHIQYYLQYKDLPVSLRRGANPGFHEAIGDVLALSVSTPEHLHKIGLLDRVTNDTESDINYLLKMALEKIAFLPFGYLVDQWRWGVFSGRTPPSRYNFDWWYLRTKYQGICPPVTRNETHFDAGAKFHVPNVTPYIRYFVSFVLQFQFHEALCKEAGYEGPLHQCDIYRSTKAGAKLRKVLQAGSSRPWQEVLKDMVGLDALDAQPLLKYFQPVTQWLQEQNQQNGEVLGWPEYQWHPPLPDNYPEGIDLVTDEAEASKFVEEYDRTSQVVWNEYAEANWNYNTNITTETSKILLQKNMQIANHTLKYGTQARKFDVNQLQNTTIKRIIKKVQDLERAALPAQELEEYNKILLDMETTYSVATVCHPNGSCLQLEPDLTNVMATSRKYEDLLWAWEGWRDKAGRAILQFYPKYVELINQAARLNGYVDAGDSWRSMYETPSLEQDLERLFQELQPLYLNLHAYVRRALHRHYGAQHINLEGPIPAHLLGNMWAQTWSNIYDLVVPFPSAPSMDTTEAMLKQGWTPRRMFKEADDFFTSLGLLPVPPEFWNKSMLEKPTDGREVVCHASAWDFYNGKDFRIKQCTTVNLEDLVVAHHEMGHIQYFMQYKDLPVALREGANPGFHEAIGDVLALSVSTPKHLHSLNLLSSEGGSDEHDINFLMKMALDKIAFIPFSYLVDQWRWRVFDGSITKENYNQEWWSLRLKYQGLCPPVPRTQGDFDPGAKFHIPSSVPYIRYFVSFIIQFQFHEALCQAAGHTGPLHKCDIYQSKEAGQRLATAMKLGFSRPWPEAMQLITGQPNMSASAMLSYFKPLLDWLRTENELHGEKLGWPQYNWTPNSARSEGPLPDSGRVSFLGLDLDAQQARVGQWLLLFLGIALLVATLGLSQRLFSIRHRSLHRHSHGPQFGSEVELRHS

| ACE inhibiting activity (ACE) | Substance | antihypertensive effects [1] |
| --- | --- | --- |
| Strong ACE inhibiting activities | Ile-Pro-Pro | confirmed |
| Strong ACE inhibiting activities | Leu-Pro-Pro |  |

| Substance | ACE inhibiting activity (ACE) | antihypertensive effects [1] |
| --- | --- | --- |
| Val-Pro-Pro | Strong ACE inhibiting activities | confirmed |
